The test system of experiment [1] is MC-38. In words: Cytotoxicity against mouse Colon 38 cells after 5 days by hemocytometry. Type of experiment: functional, cell-based. The note with it: MC-38, 120 h.
Experiment [2] relates to CT26. In words: Cytotoxicity against mouse CT26 cells after 5 days by hemocytometry. Type of experiment: functional, cell-based. The conditions noted are these: CT26, 120 h.
Experiment [3] has as its target T1, Protein deacetylase HDAC6 (Homo sapiens, UniProt Q9UBN7).
T1 sequence (Q9UBN7 whole entry): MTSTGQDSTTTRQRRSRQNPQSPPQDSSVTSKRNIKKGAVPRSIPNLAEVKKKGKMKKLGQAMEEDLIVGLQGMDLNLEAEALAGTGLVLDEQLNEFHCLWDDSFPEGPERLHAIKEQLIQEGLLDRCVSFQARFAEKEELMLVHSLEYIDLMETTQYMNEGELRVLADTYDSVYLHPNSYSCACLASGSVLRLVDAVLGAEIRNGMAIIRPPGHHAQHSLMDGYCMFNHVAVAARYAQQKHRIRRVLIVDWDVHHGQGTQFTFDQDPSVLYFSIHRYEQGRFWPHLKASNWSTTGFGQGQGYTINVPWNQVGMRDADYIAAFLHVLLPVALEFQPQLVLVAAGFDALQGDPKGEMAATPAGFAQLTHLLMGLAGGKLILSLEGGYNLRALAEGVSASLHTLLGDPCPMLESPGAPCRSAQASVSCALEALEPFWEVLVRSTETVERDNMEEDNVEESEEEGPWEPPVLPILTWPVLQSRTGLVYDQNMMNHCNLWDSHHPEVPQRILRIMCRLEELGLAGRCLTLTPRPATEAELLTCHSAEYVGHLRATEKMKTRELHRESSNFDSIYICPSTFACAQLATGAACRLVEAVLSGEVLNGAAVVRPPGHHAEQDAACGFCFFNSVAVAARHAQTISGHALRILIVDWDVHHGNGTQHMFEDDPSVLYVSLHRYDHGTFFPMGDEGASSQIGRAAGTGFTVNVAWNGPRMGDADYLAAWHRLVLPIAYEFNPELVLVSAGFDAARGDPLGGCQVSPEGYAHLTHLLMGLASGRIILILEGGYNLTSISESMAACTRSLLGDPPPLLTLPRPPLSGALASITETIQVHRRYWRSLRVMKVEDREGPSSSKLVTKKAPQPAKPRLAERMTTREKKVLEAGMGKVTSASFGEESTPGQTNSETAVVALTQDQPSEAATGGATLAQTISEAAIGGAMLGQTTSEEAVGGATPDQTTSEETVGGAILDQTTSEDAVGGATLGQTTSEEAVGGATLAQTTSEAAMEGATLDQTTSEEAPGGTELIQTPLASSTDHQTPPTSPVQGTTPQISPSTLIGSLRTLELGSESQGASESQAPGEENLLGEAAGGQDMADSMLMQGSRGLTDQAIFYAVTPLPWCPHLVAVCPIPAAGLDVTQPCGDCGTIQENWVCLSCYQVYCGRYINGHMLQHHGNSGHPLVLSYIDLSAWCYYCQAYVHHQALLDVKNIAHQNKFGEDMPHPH
In words: Inhibition of recombinant human full length HDAC6 expressed in baculovirus infected Sf9 insect cells using RHKKAC as substrate incubated for 5 to 10 mins followed by substrate addition measured after 2 hrs by fluorescence assay.

The species entered for experiment [4] is Homo sapiens. In words: Selectivity ratio of IC50 for recombinant human full length HDAC1 expressed in baculovirus infected Sf9 insect cells to IC50 for recombinant human full length HDAC6 expressed in baculovirus infected Sf9 insect cells.
The species named for experiment [5] is Homo sapiens. In words: Selectivity ratio of IC50 for human HDAC2 to IC50 for recombinant human full length HDAC6 expressed in baculovirus infected Sf9 insect cells.
The species named for experiment [6] is Homo sapiens. In words: Selectivity ratio of IC50 for human HDAC3 to IC50 for recombinant human full length HDAC6 expressed in baculovirus infected Sf9 insect cells.
Experiment [7] deals with HCT-116. In words: Antitumor activity against human HCT116 cells xenografted in BALB/c nude mouse assessed as tumor growth inhibition at 50 mg/kg, ip for 16 days. Type of experiment: functional. The note with it: HCT-116, ip, 384 h, read-out: TGI. On the technique in general: In xenograft studies the graft and the host belong to different species.
For experiment [8], the system named is HCT-116. In words: Antitumor activity against human HCT116 cells xenografted in BALB/c nude mouse assessed as tumor growth inhibition at 100 mg/kg, ip for 16 days. Type of experiment: functional. The note with it: HCT-116, ip, 384 h, read-out: TGI.
Experiment [9] relates to Staphylococcus aureus. In words: Antibacterial activity against Staphylococcus aureus ATCC 6538P after 24 hrs by agar well diffusion method. Type of experiment: functional. (In general: A growth-free zone around the sample is the usual read-out of agar diffusion tests.)
Experiment [10] concerns Escherichia coli. In words: Antibacterial activity against Escherichia coli ATCC 8739 after 24 hrs by agar well diffusion method. The note with it: ATCC 8739, 24 h. Type of experiment: functional.
The test system of experiment [11] is Mycobacterium tuberculosis. In words: Antimycobacterial activity against Mycobacterium tuberculosis H37Rv. Type of experiment: functional.
Experiment [12] has as its system MCF7. In words: Antiproliferative activity against human MCF7 cells after 48 hrs by MTT assay. Type of experiment: functional, cell-based. The conditions noted are these: MCF7, 48 h.
For experiment [13], the system named is HeLa. In words: Antiproliferative activity against human HeLa cells after 48 hrs by MTT assay. Type of experiment: functional, cell-based. For orientation: Tetrazolium dyes change colour on reduction, which living cells bring about.

Converted amounts (≈) assume the structure as drawn.

As to `O=C(Nc1ccc(Cl)cc1)c1ccno1`, the concentration for half-maximal inhibition (IC50) in experiment [1] and in experiment [2] was 2.5 µg/mL (≈ 11.2 µM) each time.

Regarding `CC(C)(C)OC(=O)Nc1ccc(-c2cc(C(=O)NCc3ccc(C(=O)NO)cc3)no2)cc1`, the half-inhibitory concentration (IC50) in experiment [3] is under 0.01 µM. Moreover, the Ratio IC50 in experiment [4], in [5] and in [6] was over 500 throughout.

On to `CCCCCCC(=O)Nc1cccc(-c2cc(C(=O)NCc3ccc(C(=O)NO)cc3)no2)c1`, for which the concentration for half-maximal inhibition (IC50) in experiment [3] is under 0.01 µM. Also, the Ratio IC50 in [4], in [5] and in experiment [6] was over 500 throughout.

With `CCc1cc(-c2oncc2-c2ccc(OC)cc2)c(O)cc1OC`, in [7], the inhibition in vivo at 50 mg/kg was found to be 49.5%. In addition, in experiment [8], the inhibition in vivo at 100 mg/kg stood at 70.3%.

In the case of `CCCCCCC(=O)Nc1ccc(-c2cc(C(=O)NCc3ccc(C(=O)NO)cc3)no2)cc1`, the IC50 in experiment [3] is under 0.01 µM. The Ratio IC50 in experiment [4], in experiment [5] and in experiment [6] was over 500 throughout.

Consider `O=[N+]([O-])c1ccc(-c2cc(C3CC3)no2)cc1`, for which the MIC in experiment [9] and in [10] was 25 µg/mL (≈ 109 µM) each time.

Regarding `CCOC(=O)c1cc(/C=C/c2ccnc3ccccc23)on1`, in experiment [11], inhibition of growth (MIC) required 0.2 µM (≈ 0.0589 µg/mL).

For `CC(C)(C)OC(=O)Nc1cccc(-c2cc(C(=O)NCc3ccc(C(=O)NO)cc3)no2)c1`, the IC50 in experiment [3] is under 0.01 µM. In addition, the Ratio IC50 in experiment [4], in experiment [5] and in [6] was over 500 in each case.

For the compound `COc1ccc(-c2cc(-c3cccs3)on2)cc1OC`, the concentration for half-maximal inhibition (IC50) is 19.5 µM in experiment [12] and 39.2 µM in [13].

A word on the IC50: it is the point on the concentration scale where inhibition reaches its midpoint. The MIC is the lowest concentration that inhibits growth of the organism. Read a low MIC as a more susceptible organism.
